Laboratory results as given in patent publication US10428060B2, “PI-kinase inhibitors with anti-infective activity” (The Board of Trustees of the Leland Stanford Junior …, priority 2011, dated 2019).

How the values were obtained:
PI3K p110g = molecular target: T1, PI3K p110g (Homo sapiens, UniProt P48736); experiment: PI3K p110g kinase assay; format: biochemical
T1 construct: purchased Millipore
Experimental: (§1) In the assays described here, p110α-p85 complex and p110γ were acquired from Millipore. Assays were performed with Lα-phosphatidylinositol (Avanti) as described in Knight et al. Nat Protoc. 2007; 2 (10):2459-66. Inhibitor series were prepared 10% DMSO as 5× stocks for the assay. Assays of HsVps34 were performed as described in Knight et al, except that the final assay buffer composition used was changed to 20 mM HEPES 7.5, 100 mM NaCl, 3 mM MgCl, 1 mg/mL PI and 44 nM hvps34 was used in the assay. […] COS-7 cells were cultured in 10 cm dishes and transfected at 70% confluence with 10 μg of plasmid DNA (HA-tagged bovine PI4KIIIβ, HA-tagged human PI4KIIIα) using Lipofectamine 2000 and 5 ml Opti-MEM following the manufacturer's instructions. After 5 hours the transfection medium was replaced with 10 ml complete DMEM. 36 hrs post transfection, cells were washed once with 5 ml PBS (pH 7.4) and lysed in 1 ml of lysis buffer (1) on ice. Lysates were collected by scraping and after 15 min they were centrifuged at 13,000 rpm for 10 min. To the lysates was added 200 μl of protein G Sepharose 4 fast flow beads that were prewashed with PBS and lysis buffer and 2 μg of anti-HA antibody. The tubes were then incubated overnight at 4 degrees C. in a tube rotator. The Sepharose beads in the lysate were washed twice with 150 mM NaCl in RIPA buffer, twice with RIPA buffer and once with kinase buffer (50 mM Tris/HCl, pH 7.5, 20 mM MgCl2, 1 mM EGTA, 1 mM PtdIns, 0.4% Triton X-100, 0.5 mg/mL BSA) and finally the beads were resuspended in 200 μL kinase buffer. Kinase reactions were run in a mixture of 45 μL of PI buffer (1 mM PI in kinase buffer), 10 μL of immunoprecipitated beads, 2 µL of inhibitors (dissolved and diluted in DMSO) or DMSO and 5 μL of [γ-^32P]-ATP (1 mM and 2 μCi/tube). The immunoprecipitates in PI buffer were pre-incubated with the drugs for 20 min prior the initiation of kinase reaction by adding ATP and the reactions were carried out for 30 min in 15 ml polypropolyne tubes. Reactions were terminated by addition of 3 ml of CHCl3:CH3OH:HCl (200:100:0.75) followed by 0.6 ml of 0.6N HCl to induce phase separation. The mixtures were vortexed, centrifuged at 2000 rpm for 2 min and the upper phase was discarded. To the lower phase was added 1.5 ml of CHCl3:CH3OH:0.6N HCl (3:48:47) and the mixture vortexed and centrifuged at 2000 rpm for 2 min. The lower phase was then transferred to counting vials and evaporated. Samples were counted in a scintillation beta counter after adding 5 ml of Instafluor (Perkin-Elmer).
(§2) PI-kinase assay: Compounds are tested in C.1.1. PI kinase assays as described by Shokat et al., “A membrane capture assay for lipid kinase activity.” Nat. Protoc. 2007; 2(10):2459-66.

PI4KIIIB = molecular target: T2, PI4KIIIB (Bos taurus, UniProt O02810); experiment: PI4KIIIB kinase assay; format: biochemical, bovine
T2 construct: made in house; host or cells: COS-7 cells, transient transfection, anti-HA immunoprecipitate on protein G Sepharose beads
T2 sequence (O02810 whole entry): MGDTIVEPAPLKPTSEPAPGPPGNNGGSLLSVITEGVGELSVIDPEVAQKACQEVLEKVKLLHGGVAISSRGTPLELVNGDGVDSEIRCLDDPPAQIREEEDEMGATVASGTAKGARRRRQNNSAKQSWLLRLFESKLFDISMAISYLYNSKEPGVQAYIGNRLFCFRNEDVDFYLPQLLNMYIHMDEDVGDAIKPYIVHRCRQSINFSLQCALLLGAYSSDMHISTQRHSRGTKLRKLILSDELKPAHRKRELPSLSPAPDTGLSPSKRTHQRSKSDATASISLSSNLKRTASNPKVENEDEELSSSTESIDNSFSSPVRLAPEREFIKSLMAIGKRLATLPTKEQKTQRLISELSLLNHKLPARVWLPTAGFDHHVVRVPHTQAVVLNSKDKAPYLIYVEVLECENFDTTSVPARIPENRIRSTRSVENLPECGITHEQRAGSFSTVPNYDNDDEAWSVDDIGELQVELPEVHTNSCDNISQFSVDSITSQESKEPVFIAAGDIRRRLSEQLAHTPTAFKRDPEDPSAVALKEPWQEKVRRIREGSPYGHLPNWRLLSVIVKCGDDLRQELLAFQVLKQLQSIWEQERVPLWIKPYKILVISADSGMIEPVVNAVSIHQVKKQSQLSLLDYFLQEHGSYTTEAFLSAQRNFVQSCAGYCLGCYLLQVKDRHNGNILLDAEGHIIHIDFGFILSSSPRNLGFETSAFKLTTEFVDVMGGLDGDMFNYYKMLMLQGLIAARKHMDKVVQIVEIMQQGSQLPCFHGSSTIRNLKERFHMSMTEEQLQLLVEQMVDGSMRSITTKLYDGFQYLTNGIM
Experimental: as §1, with “2007; 2 (10):2459-66.” left out, “for” for “for the assay. Assays of HsVps34 were performed as described in Knight et al, except that the final assay buffer composition used was changed to 20 mM HEPES 7.5, 100 mM NaCl, 3 mM MgCl, 1 mg/mL PI and 44 nM hvps34 was used in”, “Lysates were collected by scraping and after 15 min they were centrifuged at 13,000 rpm for 10 min.” left out, “The Sepharose beads in the lysate were washed twice with 150 mM NaCl in RIPA buffer, twice with RIPA buffer and once with kinase buffer (50 mM Tris/HCl, pH 7.5, 20 mM MgCl2, 1 mM EGTA, 1 mM PtdIns, 0.4% Triton X-100, 0.5 mg/mL BSA) and finally the beads were resuspended in 200 μL kinase buffer.” left out
PI-kinase assay: Compounds are tested in C.1.1. PI kinase assays as described by Shokat et al., “A membrane capture assay for lipid kinase activity.” Nat. Protoc.

PI4KIIIA = molecular target: T3, PI4KIIIA (Homo sapiens, UniProt P42356); experiment: PI4KIIIA kinase assay; format: biochemical
T3 construct: made in house; host or cells: COS-7 cells, transient transfection, anti-HA immunoprecipitate on protein G Sepharose beads
Experimental: as §1, with “Reactions were terminated by addition of 3 ml of CHCl3:CH3OH:HCl (200:100:0.75) followed by 0.6 ml of 0.6N HCl to induce phase separation. The mixtures were vortexed, centrifuged at 2000 rpm for 2 min and the upper phase was discarded. To the lower phase was added 1.5 ml of CHCl3:CH3OH:0.6N HCl (3:48:47) and the mixture vortexed and centrifuged at 2000 rpm for 2 min. The lower phase was then transferred to counting vials and evaporated.” left out, “(Perkin-Elmer). […]” for “(Perkin-Elmer).”

PI3KC2G = molecular target: T4, PI3KC2G (Homo sapiens, UniProt O75747); experiment: PI3KC2G kinase assay; format: biochemical
T4 sequence (O75747 1-1486): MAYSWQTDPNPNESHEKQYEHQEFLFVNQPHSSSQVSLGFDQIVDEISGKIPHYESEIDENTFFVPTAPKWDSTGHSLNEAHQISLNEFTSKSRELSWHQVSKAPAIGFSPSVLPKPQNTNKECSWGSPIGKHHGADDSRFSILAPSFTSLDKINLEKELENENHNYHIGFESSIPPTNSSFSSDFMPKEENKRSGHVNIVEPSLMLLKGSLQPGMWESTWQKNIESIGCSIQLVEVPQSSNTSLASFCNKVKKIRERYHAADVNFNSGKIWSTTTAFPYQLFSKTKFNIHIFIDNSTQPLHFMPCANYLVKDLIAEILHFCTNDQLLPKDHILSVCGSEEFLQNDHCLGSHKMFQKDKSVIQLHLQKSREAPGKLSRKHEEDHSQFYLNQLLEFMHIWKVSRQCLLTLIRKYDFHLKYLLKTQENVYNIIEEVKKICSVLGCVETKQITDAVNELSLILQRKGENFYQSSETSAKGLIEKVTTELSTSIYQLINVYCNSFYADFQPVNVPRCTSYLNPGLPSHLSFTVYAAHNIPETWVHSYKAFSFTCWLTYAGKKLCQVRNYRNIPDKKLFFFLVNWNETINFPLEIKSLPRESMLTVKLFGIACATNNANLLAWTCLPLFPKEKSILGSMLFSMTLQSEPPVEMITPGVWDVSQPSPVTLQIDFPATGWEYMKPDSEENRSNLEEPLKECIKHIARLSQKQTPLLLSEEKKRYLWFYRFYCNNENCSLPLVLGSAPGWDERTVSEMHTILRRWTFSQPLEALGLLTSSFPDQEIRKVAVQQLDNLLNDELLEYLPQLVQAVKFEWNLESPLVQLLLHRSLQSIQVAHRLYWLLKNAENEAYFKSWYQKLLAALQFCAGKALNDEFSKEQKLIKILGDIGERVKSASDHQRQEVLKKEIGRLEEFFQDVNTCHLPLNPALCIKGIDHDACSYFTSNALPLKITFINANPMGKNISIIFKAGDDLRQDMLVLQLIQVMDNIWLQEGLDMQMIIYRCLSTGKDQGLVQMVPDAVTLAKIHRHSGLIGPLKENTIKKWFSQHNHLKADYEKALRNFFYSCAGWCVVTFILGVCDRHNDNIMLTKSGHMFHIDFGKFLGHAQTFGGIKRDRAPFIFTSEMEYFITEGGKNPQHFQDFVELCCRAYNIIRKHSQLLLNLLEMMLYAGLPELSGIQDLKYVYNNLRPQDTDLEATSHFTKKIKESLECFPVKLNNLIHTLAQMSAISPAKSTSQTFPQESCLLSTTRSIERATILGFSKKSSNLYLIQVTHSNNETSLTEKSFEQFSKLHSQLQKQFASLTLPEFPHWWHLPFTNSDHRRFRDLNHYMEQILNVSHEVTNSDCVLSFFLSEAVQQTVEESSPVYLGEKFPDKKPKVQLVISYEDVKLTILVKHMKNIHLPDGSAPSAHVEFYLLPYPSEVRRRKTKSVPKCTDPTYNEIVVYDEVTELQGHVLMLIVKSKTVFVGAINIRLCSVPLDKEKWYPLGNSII

HCV replicon = experiment: Resistance selection in HCV replicon system; format: cell-based
Ebola = experiment: microbe, parasite or virus in culture; format: cell-based; settings: Zaire ebolavirus, read-out: Ebola EC50
PI3KC2B = PI3KC2B (Homo sapiens, UniProt O00750); experiment: PI3KC2B kinase assay; format: biochemical
Sequence of PI3KC2B (O00750 whole entry): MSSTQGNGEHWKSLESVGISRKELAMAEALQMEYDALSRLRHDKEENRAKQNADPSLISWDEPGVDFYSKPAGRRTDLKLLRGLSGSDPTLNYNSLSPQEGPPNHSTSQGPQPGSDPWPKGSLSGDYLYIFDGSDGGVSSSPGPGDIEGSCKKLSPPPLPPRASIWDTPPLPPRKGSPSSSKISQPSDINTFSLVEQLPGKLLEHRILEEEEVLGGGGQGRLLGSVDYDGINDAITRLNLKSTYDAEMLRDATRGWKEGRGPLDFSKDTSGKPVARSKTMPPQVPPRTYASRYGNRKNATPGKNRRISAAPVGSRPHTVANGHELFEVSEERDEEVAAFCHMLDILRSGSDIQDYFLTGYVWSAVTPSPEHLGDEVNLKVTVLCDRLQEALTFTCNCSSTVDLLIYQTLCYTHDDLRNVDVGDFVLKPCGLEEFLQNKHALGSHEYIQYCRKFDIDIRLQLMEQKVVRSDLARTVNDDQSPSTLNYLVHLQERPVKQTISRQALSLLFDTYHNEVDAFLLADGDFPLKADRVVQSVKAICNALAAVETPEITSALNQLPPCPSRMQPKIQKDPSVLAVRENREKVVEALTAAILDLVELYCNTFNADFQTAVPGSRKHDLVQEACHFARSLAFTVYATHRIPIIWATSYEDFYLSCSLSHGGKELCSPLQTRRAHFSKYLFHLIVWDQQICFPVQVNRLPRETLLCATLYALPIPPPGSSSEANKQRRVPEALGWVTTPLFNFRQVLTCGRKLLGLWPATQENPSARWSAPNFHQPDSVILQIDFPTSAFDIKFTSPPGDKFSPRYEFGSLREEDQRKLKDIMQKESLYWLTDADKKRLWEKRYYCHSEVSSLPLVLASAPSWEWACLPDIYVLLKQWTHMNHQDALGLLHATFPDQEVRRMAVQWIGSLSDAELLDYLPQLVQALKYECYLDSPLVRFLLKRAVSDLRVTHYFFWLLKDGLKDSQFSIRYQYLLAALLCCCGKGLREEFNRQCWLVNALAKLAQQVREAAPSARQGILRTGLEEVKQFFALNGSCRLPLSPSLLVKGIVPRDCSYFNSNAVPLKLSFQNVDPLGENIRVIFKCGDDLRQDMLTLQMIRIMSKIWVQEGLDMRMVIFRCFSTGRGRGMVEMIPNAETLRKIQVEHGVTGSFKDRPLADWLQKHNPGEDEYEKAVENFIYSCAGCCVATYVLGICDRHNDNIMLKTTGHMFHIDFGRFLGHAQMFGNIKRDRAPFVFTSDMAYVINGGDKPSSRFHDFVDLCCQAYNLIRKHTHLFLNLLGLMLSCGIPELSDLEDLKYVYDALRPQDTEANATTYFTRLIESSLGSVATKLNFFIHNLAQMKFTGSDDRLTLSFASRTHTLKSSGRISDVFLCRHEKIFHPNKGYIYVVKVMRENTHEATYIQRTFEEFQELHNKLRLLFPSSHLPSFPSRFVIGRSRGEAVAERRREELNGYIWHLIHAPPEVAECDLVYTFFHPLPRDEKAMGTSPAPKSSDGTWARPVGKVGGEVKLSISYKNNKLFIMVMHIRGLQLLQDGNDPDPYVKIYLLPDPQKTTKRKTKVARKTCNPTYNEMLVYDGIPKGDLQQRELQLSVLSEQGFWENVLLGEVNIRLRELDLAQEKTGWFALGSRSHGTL
Experimental: as §2

HCV genotype 2a = experiment: microbe, parasite or virus in culture; format: cell-based; settings: Hepatitis C virus, Huh7.5, read-out: HCV2a EC50
EV71 = EV71 antiviral assay; format: cell-based; settings: Enterovirus A
Norovirus = Norovirus antiviral assay; format: cell-based
HRV = experiment: Rhinovirus antiviral assay; format: cell-based; settings: Human rhinovirus sp.

T1 sequence (P48736 whole entry): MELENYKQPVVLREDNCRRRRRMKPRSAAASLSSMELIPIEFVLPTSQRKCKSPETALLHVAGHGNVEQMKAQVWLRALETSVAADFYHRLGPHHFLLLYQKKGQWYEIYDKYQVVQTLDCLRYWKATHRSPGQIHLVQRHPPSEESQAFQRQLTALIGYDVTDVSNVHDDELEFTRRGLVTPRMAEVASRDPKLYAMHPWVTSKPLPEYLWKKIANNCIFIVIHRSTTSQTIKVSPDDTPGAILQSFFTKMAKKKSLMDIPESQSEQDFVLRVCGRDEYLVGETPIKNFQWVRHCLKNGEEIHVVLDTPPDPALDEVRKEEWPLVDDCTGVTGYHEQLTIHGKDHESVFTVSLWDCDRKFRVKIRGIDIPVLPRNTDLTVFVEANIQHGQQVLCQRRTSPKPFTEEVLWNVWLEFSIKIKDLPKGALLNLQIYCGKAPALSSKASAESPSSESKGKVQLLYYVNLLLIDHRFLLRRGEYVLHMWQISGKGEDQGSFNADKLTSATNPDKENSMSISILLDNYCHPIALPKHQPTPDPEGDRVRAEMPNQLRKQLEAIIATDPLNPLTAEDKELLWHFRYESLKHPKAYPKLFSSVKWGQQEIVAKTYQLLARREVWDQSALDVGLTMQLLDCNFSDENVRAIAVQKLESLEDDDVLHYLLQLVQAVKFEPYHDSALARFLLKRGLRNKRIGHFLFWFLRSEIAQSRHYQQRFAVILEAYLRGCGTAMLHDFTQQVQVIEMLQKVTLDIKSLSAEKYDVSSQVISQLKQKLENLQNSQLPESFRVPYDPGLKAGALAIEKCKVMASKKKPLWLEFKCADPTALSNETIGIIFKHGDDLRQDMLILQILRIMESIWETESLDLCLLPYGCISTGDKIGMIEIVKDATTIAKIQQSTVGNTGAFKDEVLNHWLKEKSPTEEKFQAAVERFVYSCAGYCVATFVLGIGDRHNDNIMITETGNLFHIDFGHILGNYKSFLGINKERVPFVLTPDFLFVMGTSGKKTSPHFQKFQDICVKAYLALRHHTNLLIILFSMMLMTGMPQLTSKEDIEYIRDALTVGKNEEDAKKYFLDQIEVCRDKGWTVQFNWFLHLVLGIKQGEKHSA

## COc1ccc(-c2sc(NCCC3CCCCC3)nc2C)cc1S(=O)(=O)NC1CCC(O)C1 (centres unmarked) [Compound S-214, 5-[2-(2-cyclohexylethylamino)-4-methyl-thiazol-5-yl]-N-(3-hydroxycyclopentyl)-2-methoxy-benzenesulfonamide]
PI3K p110g
  IC50: > 10 µM
PI4KIIIB
  IC50: 100 to 1000 nM
PI4KIIIA
  IC50: > 10 µM
PI3KC2G
  IC50: > 10 µM

## COc1ccc(-c2sc(NC(=O)C3CCCC3)nc2C)cc1S(=O)(=O)Nc1ccc(O)cc1 [PT423]
HCV replicon
  Selection of resistance: resistance was not able to be selected

## COc1ccc(-c2sc(NC(=O)CC3CCOCC3)nc2C)cc1S(=O)(=O)Nc1ccc(O)cc1 [Compound S-227, N-[5-[3-[(4-hydroxyphenyl)sulfamoyl]-4-methoxy-phenyl]-4-methyl-thiazol-2-yl]-2-tetrahydropyran-4-yl-acetamide]
Ebola
  EC50: 100 to 1000 nM
PI3K p110g
  IC50: > 10 µM
PI3KC2B
  IC50: > 10 µM
HCV genotype 2a
  EC50: 1 to 100 nM
EV71
  EC50: < 1 nM
Norovirus
  EC50: 100 to 1000 nM
HRV
  EC50: 1 to 100 nM

## COc1ccc(-c2sc(NC3CCCCCC3)nc2C)cc1S(=O)(=O)Nc1c(C)cccc1C [Compound S-98, 5-[2-(cycloheptylamino)-4-methyl-thiazol-5-yl]-N-(2,6-dimethylphenyl)-2-methoxy-benzenesulfonamide; 2,2,2-trifluoroacetic acid]
PI3K p110g
  IC50: > 10 µM
HCV genotype 2a
  EC50: 1000 to 10000 nM
EV71
  EC50: < 1 nM
Norovirus
  EC50: 1000 to 10000 nM
HRV
  EC50: < 1 nM

## COc1ccc(-c2sc(NCC3CCCCC3)nc2C)cc1S(=O)(=O)Nc1cccc(C(C)(C)C)c1 [Compound S-32, N-(3-tert-butylphenyl)-5-[2-(cyclohexylmethylamino)-4-methyl-thiazol-5-yl]-2-methoxy-benzenesulfonamide; 2,2,2-trifluoroacetic acid]
Ebola
  EC50: 1000 to 10000 nM
HCV genotype 2a
  EC50: 1000 to 10000 nM
HRV
  EC50: < 1 nM
